Assay results: ChEMBL document CHEMBL3632477 (2015)
pEC50: −log10 of the molar value. Where a SMILES comes first, the peptide text is derived from it. Bridges are numbered along the chain shown (N, C = ends). [ ]: non-standard residue; d: D form. Bip(2'-Et-4'-OMe) = CCc1cc(OC)ccc1-c1ccc(C[C@H](N)C(=O)O)cc1; αMePhe(2,6-F2) = C[C@](N)(Cc1c(F)cccc1F)C(=O)O; Bip = N[C@@H](Cc1ccc(-c2ccccc2)cc1)C(=O)O; αMePhe(2-F) = C[C@](N)(Cc1ccccc1F)C(=O)O; hhPhe = N[C@@H](CCCc1ccccc1)C(=O)O; αMeF = C[C@](N)(Cc1ccccc1)C(=O)O; Pen = CC(C)(S)[C@H](N)C(=O)O; Aib = CC(C)(N)C(=O)O

target: Glucagon-like peptide 1 receptor (Homo sapiens, UniProt P43220); experiment: Agonist activity at human GLP-1R expressed in CHO-K1 cells assessed as increase in cAMP level incubated for 30 mins; type: functional, cell-based
Sequence (P43220 whole entry): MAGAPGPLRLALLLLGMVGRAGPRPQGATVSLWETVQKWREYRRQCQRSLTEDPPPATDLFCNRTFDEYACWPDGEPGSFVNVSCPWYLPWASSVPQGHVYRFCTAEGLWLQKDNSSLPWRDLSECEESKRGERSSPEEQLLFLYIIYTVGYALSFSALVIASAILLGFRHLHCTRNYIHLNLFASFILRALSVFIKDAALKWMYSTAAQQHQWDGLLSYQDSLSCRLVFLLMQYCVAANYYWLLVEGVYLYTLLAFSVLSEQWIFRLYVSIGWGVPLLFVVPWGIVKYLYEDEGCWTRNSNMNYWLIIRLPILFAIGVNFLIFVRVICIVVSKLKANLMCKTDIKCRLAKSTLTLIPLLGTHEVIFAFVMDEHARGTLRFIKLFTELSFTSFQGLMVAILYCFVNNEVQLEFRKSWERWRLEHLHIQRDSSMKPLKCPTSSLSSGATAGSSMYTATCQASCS

With CCc1cc(OC)ccc1-c1ccc(C[C@@H]2NC(=O)[C@H](CC(=O)O)NC(=O)[C@H](CO)NC(=O)[C@H]([C@@H](C)O)NC(=O)[C@](C)(Cc3ccccc3)NC(=O)[C@H]([C@@H](C)O)NC(=O)CNC(=O)[C@H](CCC(=O)O)NC(=O)[C@@H]3CCCN3C(=O)[C@H](Cc3cnc[nH]3)NC(=O)[C@H](CO)NC(=O)[C@@H]3CSSC[C@H](NC(=O)[C@H](CCCc4ccccc4)NC2=O)C(=O)NCC(=O)N[C@@H](Cc2ccc(-c4ccccc4)cc2)C(=O)N[C@@H](C)C(=O)N[C@@H](C)C(=O)NCC(=O)NCC(=O)NCC(=O)N[C@@H](C)C(=O)N3)cc1 (cyclo(AAGGGACSHPEGT[αMeF]TSD[Bip(2'-Et-4'-OMe)][hhPhe]CG[Bip]); disulfide 7-20) as the compound, how does the pEC50 read?
Its pEC50 is 6.44.

With CCc1cc(OC)ccc1-c1ccc(C[C@@H]2NC(=O)[C@H](CC(=O)O)NC(=O)[C@H](CO)NC(=O)[C@@H]3CSSC[C@@H](C(=O)O)NC(=O)[C@H](CSSC[C@H](NC(=O)CNC(=O)[C@H](CCC(=O)O)NC(=O)C(C)(C)NC(=O)[C@@H](N)Cc4cnc[nH]4)C(=O)N[C@@H](Cc4ccccc4)C(=O)N3)NC(=O)[C@H](CC(C)C)NC(=O)[C@H](CCCc3ccccc3)NC2=O)cc1 (H-H[Aib]EGCFCSD[Bip(2'-Et-4'-OMe)][hhPhe]LCC-OH; disulfide 5-13, 7-14) as the compound, how does the pEC50 read?
The pEC50 was 4.80.

CCc1cc(OC)ccc1-c1ccc(C[C@@H]2NC(=O)[C@H](CC(=O)O)NC(=O)[C@H](CO)NC(=O)[C@H]([C@@H](C)O)NC(=O)[C@](C)(Cc3c(F)cccc3F)NC(=O)[C@H]([C@@H](C)O)NC(=O)CNC(=O)[C@H](CCC(=O)O)NC(=O)[C@@H]3CCCN3C(=O)[C@H](Cc3cnc[nH]3)NC(=O)[C@H](CO)NC(=O)[C@@H]3CSSC[C@H](NC(=O)[C@H](CCCc4ccccc4)NC2=O)C(=O)NCC(=O)N[C@@H](Cc2ccc(-c4ccccc4)cc2)C(=O)N[C@@H](C)C(=O)N[C@@H](C)C(=O)NCC(=O)NCC(=O)NCC(=O)N[C@@H](C)C(=O)N3)cc1 (cyclo(AAGGGACSHPEGT[αMePhe(2,6-F2)]TSD[Bip(2'-Et-4'-OMe)][hhPhe]CG[Bip]); disulfide 7-20) was tested. Which pEC50 did it give?
The pEC50 was 6.33.

How did the pEC50 turn out when CCc1cc(OC)ccc1-c1ccc(C[C@H](NC(=O)[C@H](CC(=O)O)NC(=O)[C@H](CO)NC(=O)[C@@H](NC(=O)[C@](C)(Cc2ccccc2F)NC(=O)[C@@H](NC(=O)CNC(=O)[C@H](CCC(=O)O)NC(=O)[C@@H]2CCCN2C(=O)[C@@H](N)Cc2cnc[nH]2)[C@@H](C)O)[C@@H](C)O)C(=O)N[C@@H](CCCc2ccccc2)C(=O)N[C@H]2CSSC[C@@H](C(=O)N[C@@H](CO)C(=O)O)NC(=O)[C@H](C)NC(=O)CNC(=O)CNC(=O)CNC(=O)[C@H](C)NC(=O)[C@H](C)NC(=O)CNC(=O)CNC2=O)cc1 (H-HPEGT[αMePhe(2-F)]TSD[Bip(2'-Et-4'-OMe)][hhPhe]CGGAAGGGACS-OH; disulfide 12-21) was run?
Its pEC50 is 9.00.

CCc1cc(OC)ccc1-c1ccc(C[C@H](NC(=O)[C@H](CC(=O)O)NC(=O)[C@H](CO)NC(=O)[C@@H](NC(=O)[C@](C)(Cc2c(F)cccc2F)NC(=O)[C@@H](NC(=O)CNC(=O)[C@H](CCC(=O)O)NC(=O)[C@@H]2CCCN2C(=O)[C@@H](N)Cc2cnc[nH]2)[C@@H](C)O)[C@@H](C)O)C(=O)N[C@@H](CCCc2ccccc2)C(=O)N[C@H](C(=O)NCC(=O)NCC(=O)N[C@@H](C)C(=O)N[C@@H](C)C(=O)NCC(=O)NCC(=O)NCC(=O)N[C@@H](C)C(=O)N[C@H](C(=O)N[C@@H](CO)C(=O)O)C(C)(C)S)C(C)(C)S)cc1 (H-HPEGT[αMePhe(2,6-F2)]TSD[Bip(2'-Et-4'-OMe)][hhPhe][Pen]GGAAGGGA[Pen]S-OH) was tested. Which pEC50 did it give?
The pEC50 was 8.60.

How did the pEC50 turn out when CCc1cc(OC)ccc1-c1ccc(C[C@@H]2NC(=O)[C@H](CC(=O)O)NC(=O)[C@H](CO)NC(=O)[C@@H]3CSSC[C@@H](C(=O)O)NC(=O)[C@H](CSSC[C@H](NC(=O)CNC(=O)[C@H](CCC(=O)O)NC(=O)C(C)(C)NC(=O)[C@H](Cc4cnc[nH]4)NC(C)=O)C(=O)N[C@@](C)(Cc4c(F)cccc4F)C(=O)N3)NC(=O)[C@H](CC(C)C)NC(=O)[C@H](CCCc3ccccc3)NC2=O)cc1 (Ac-H[Aib]EGC[αMePhe(2,6-F2)]CSD[Bip(2'-Et-4'-OMe)][hhPhe]LCC-OH; disulfide 5-13, 7-14) was run?
The pEC50 was 7.16.

How did the pEC50 turn out when CCc1cc(OC)ccc1-c1ccc(C[C@@H]2NC(=O)[C@H](CC(=O)O)NC(=O)[C@H](CO)NC(=O)[C@H]([C@@H](C)O)NC(=O)[C@](C)(Cc3c(F)cccc3F)NC(=O)[C@H]([C@@H](C)O)NC(=O)CNC(=O)[C@H](CCC(=O)O)NC(=O)C(C)(C)NC(=O)[C@H](Cc3cnc[nH]3)NC(=O)[C@H](CO)NC(=O)[C@@H]3CSSC[C@H](NC(=O)[C@H](CCCc4ccccc4)NC2=O)C(=O)NCC(=O)NCC(=O)N[C@@H](C)C(=O)N[C@@H](C)C(=O)NCC(=O)NCC(=O)NCC(=O)N[C@@H](C)C(=O)N3)cc1 (cyclo(AAGGGACSH[Aib]EGT[αMePhe(2,6-F2)]TSD[Bip(2'-Et-4'-OMe)][hhPhe]CGG); disulfide 7-20) was run?
The pEC50 was 5.85.

CCc1cc(OC)ccc1-c1ccc(C[C@@H]2NC(=O)[C@H](CC(=O)O)NC(=O)[C@H](CO)NC(=O)[C@H]([C@@H](C)O)NC(=O)[C@](C)(Cc3ccccc3F)NC(=O)[C@H]([C@@H](C)O)NC(=O)CNC(=O)[C@H](CCC(=O)O)NC(=O)[C@@H]3CCCN3C(=O)[C@H](Cc3cnc[nH]3)NC(=O)[C@H](CO)NC(=O)[C@@H]3CSSC[C@H](NC(=O)[C@H](CCCc4ccccc4)NC2=O)C(=O)NCC(=O)NCC(=O)N[C@@H](C)C(=O)N[C@@H](C)C(=O)NCC(=O)NCC(=O)NCC(=O)N[C@@H](C)C(=O)N3)cc1 (cyclo(AAGGGACSHPEGT[αMePhe(2-F)]TSD[Bip(2'-Et-4'-OMe)][hhPhe]CGG); disulfide 7-20) was tested. Which pEC50 did it give?
Its pEC50 is 6.00.

With CCc1cc(OC)ccc1-c1ccc(C[C@@H]2NC(=O)[C@H](CC(=O)O)NC(=O)[C@H](CO)NC(=O)[C@H]([C@@H](C)O)NC(=O)[C@H](Cc3ccccc3)NC(=O)[C@H]([C@@H](C)O)NC(=O)CNC(=O)[C@H](CCC(=O)O)NC(=O)[C@@H]3CCCN3C(=O)[C@H](Cc3cnc[nH]3)NC(=O)[C@H](CO)NC(=O)[C@@H]3CSSC[C@H](NC(=O)[C@H](CCCc4ccccc4)NC2=O)C(=O)NCC(=O)NCC(=O)N[C@@H](C)C(=O)N[C@@H](C)C(=O)NCC(=O)NCC(=O)NCC(=O)N[C@@H](C)C(=O)N3)cc1 (cyclo(AAGGGACSHPEGTFTSD[Bip(2'-Et-4'-OMe)][hhPhe]CGG); disulfide 7-20) as the compound, how does the pEC50 read?
Its pEC50 is 6.41.

With CCc1cc(OC)ccc1-c1ccc(C[C@@H]2NC(=O)[C@H](CC(=O)O)NC(=O)[C@H](CO)NC(=O)[C@H]([C@@H](C)O)NC(=O)[C@](C)(Cc3c(F)cccc3F)NC(=O)[C@H]([C@@H](C)O)NC(=O)CNC(=O)[C@H](CCC(=O)O)NC(=O)[C@@H]3CCCN3C(=O)[C@H](Cc3cnc[nH]3)NC(=O)[C@H](CO)NC(=O)[C@@H]3CSSC[C@H](NC(=O)[C@H](CCCc4ccccc4)NC2=O)C(=O)NCC(=O)NCC(=O)N[C@@H](C(C)C)C(=O)N[C@@H](C(C)C)C(=O)N[C@@H](C(C)C)C(=O)NCC(=O)N[C@@H](C(C)C)C(=O)N[C@@H](C(C)C)C(=O)N3)cc1 (cyclo(CGGVVVGVVCSHPEGT[αMePhe(2,6-F2)]TSD[Bip(2'-Et-4'-OMe)][hhPhe]); disulfide 1-10) as the compound, how does the pEC50 read?
The pEC50 was 6.00.
